# Results: a melting point compilation (Tetko et al.; mined from patent text by program, amines drawn as free bases though some values may be those of a salt)
row,melting point,Structure (SMILES)
1,256 to 259 °C,O=C(NCCN1CCOCC1)Nc1nc2ccc(OCc3c(Cl)cccc3Cl)cc2[nH]1
2,51 to 55 °C,CCOC(=O)[C@H](CSCc1ccc(C)c(C)c1)NC(=O)C(CSC(C)=O)Cc1ccccc1 (stereo partly drawn)
3,149 °C,CNC(=O)CN(c1ccc(Cl)cc1N(C)c1ccccc1)S(=O)(=O)c1ccc(OC)c(OC)c1
4,95 to 105 °C,Cc1cnc(C(=O)NC(C)C)c(C(=O)O)c1
5,132 °C,Cc1c(NC(=O)c2ccc(OCC3CCOC3)cc2)ccc2cc(CNCC(C)C)cnc12 (stereo not drawn)
6,229 °C,Cn1ncc(C(=O)N2CCOCC2)c1C(=O)Nc1ccc2nc(-c3cccnc3)nn2c1
7,64 °C,Cc1c(O[Si](C)(C)C(C)(C)C)cc(O[Si](C)(C)C(C)(C)C)cc1C(=O)O[Si](C)(C)C(C)(C)C
8,82 to 85 °C,O=[N+]([O-])c1ccc2c(c1)CCN(C[C@H](O)C(F)(F)F)CC2
9,128 to 130 °C,NC(=O)c1cc(C(F)(F)F)cc(F)c1F
10,143 °C,CCCCC(=NNC=O)c1ccncc1
11,104 to 106 °C,O=C1NC(=S)C(c2cccc(Cl)c2)C1c1ccccc1 (stereo not drawn)
12,211 to 215 °C,Cc1ccc2[nH]c(-c3ccccc3O)cc2c1
13,138 °C,CN(C(=O)c1ccccc1NC(=O)CN1C(=O)c2ccccc2C1=O)c1ccccc1
14,251 °C,O=C(O)c1cccc2c1Cc1c-2[nH]c2ccc(I)cc12
15,149 to 150 °C,Cc1cccc(-c2nc(CCOc3ccc(CCCC4OC(=O)NC4=O)cc3)c(C)o2)c1 (stereo not drawn)
16,70 °C,CCN(c1nc(C)cc(C(=O)c2ccc(F)cc2)n1)c1ccc(C(C)C)cc1Br
17,156 to 157 °C,O=C(O)COc1cccc2c(CNC(=O)COc3ccccc3)coc12
18,160 to 163 °C,CC1(C)[C@H](c2nc(-c3ccc(F)cc3)no2)CC[C@]1(C)NCC(=O)N1C[C@@H](F)C[C@H]1C#N
19,79 °C,O=[N+]([O-])c1ccccc1-c1cc(F)c(F)c(F)c1
20,63 to 64 °C,CCOC(=O)CC(=O)N(C)c1ccccc1N
21,128 to 132 °C,Cn1c(COc2ccc(CC3SC(=O)NC3=O)cc2)nc2ccc(Oc3cccc(NC(=O)NCc4ccc(C(F)(F)F)cc4)c3)cc21 (stereo not drawn)
22,107 to 115 °C,Cc1cc(SC2=C(O)CC(CCc3ccsc3CO)(C(C)C)OC2=O)c(C(C)(C)C)cc1N (stereo not drawn)
23,196 to 197 °C,[O-][N+]1=C(c2ccccc2Cl)c2cc(Cl)ccc2C=CC1
24,126 to 129 °C,Nc1sc2c(c1C(=O)c1cc3ccccc3o1)CCC2
25,78 to 79 °C,CC(C)(C)OC(=O)NC1CCCCC1NC(=O)c1ccccn1 (stereo not drawn)

row,melting point,Structure (SMILES)
1,240 °C,NC(=O)c1nccn1C1Cc2cc(Cl)ccc2C1=O (stereo not drawn)
2,116 to 126 °C,CN(C)S(=O)(=O)Oc1cccc2c1S(=O)(=O)N=C2C1=C(O)C(C(C)(C)C)N(Cc2ccc(F)cc2)C1=O (stereo not drawn)
3,168 to 169 °C,Cc1ccc(C[C@@H](NC(=O)c2cccc3c2C=CCCC3)[C@@H](O)c2ccc(F)cc2)cc1OC(F)(F)C(F)F (racemic)
4,165 to 166 °C,NCC1Cc2cc(F)cc(-c3cc(Cl)ccc3Cl)c2O1 (stereo not drawn)
5,167 °C,O=c1n(-c2ccc(Cl)c(Cl)c2)c(=O)n(SC(Cl)(Cl)Cl)n1SC(Cl)(Cl)Cl
6,169 to 171 °C,Nc1ccn(CC(O)CO)c(=O)n1 (stereo not drawn)
7,176 to 179 °C,CC(C)(C)CNC(=O)c1ccc(Br)c(C(=O)O)c1
8,216 °C,O=C1C=C2CCCCC2N1c1ccc(O)c(Cl)c1 (stereo not drawn)
9,119 to 120 °C,O=C1NC(c2ccccc2)(c2ccccc2)C(=O)N1COP(=O)(OCc1ccccc1)OCc1ccccc1
10,161 to 163 °C,CCOC(=O)CCCOc1ccc([N+](=O)[O-])c(C=C2C(=O)NC(=O)N2C)c1
11,128 to 130 °C,O=C(CS)NCC(=O)NCCS
12,262 to 264 °C,Cc1ccc(-n2c(-c3ccc(Br)cc3)ccc2-c2ccc(Br)cc2)cc1
13,142 to 143 °C,COc1cc2cc(CO)c(CO)c(-c3cccc(-n4c(=O)ccc5ccccc54)n3)c2cc1OC
14,158 to 160 °C,CCNC(=NS(=O)(=O)c1ccc(O)cc1)N1N=CCC1c1ccccc1 (stereo not drawn)
15,112 °C,CCCCCCCCCCCCCCCCNc1ccc(C(=O)OCC(O)CO)cc1 (stereo not drawn)
16,218 to 220 °C,COCCOc1cc2ncnc(NC3=CC(=O)C(OCc4ccccc4)=CC3=O)c2cc1OC
17,181 to 183 °C,COC(=O)c1ccc2nc3n(c(=O)c2c1)CCC3=Cc1ccccc1C
18,146 to 148 °C,CCCCCNC(=O)[C@@H](Cc1ccc(OCC(=O)O)c(C(=O)O)c1)NC(=O)Cc1ccccc1OC
19,95 to 97 °C,O=C(O)CCC1CCCC2CCC(=O)NC12 (stereo not drawn)
20,206 °C,CCCC(CCC)N1Cc2c(C(=O)O)cc(N(C)S(C)(=O)=O)cc2C1=O
21,84.5 to 86 °C,CN(C)C(=O)C1CC(=O)N(c2cc(C(F)(F)F)cc(C(F)(F)F)c2)C1 (stereo not drawn)
22,242 °C,O=C(Nc1ccc2ccc(Cl)nc2n1)c1c(F)cccc1F
23,81 to 83 °C,O=C(O)COCc1ccccc1
24,105 to 106 °C,COC(=O)c1c(C)cc(-c2ccccc2)nc1-c1cccc([N+](=O)[O-])c1
25,95 °C,c1cn2nc(N3CCCCC3)c3c(c2n1)CCCC3

row,melting point,Structure (SMILES)
1,190 °C,CC(C)(C)NC(=O)c1cc(Br)c(Br)s1
2,55.5 to 57.5 °C,CCCCCCCCCCCCCCCCCCN(CCCCCCCCCCCCCCCCCC)c1ccc([N+](=O)[O-])cc1[N+](=O)[O-]
3,116 to 117 °C,CON(C)C(=S)Nc1ccc(OCCc2ccccc2)c(Cl)c1
4,152 to 155 °C,CCCCCCCCCCCCc1nnn(C(CCCCC)C(=O)Nc2c(OC)cc(OC)cc2OC)n1 (stereo not drawn)
5,123 to 125 °C,CCOC(=O)CNc1cc(F)ccc1C(=O)O
6,252 to 254 °C,COc1cccc2c1nc(C(F)F)n2-c1nc(N2CCOCC2)nc(N2CCC(NC(=O)CCl)CC2)n1
7,223 to 224 °C,CNC1([C@@H]2CCN(c3ccc4c(=O)c(C(=O)O)cn([C@@H]5C[C@@H]5F)c4c3C)C2)CC1
8,80 to 81 °C,Cc1sc(-c2ccccc2)nc1COc1ccc(CCCC2OCCO2)cc1
9,264 to 265 °C,Clc1ccc(-c2[nH]nc(N3CCN(C4CC4)CC3)c2-c2ccncc2)cc1
10,125 to 128 °C,CN1C(=O)C2C3C=CC(CC3)C2(c2ccc(Cl)c(Cl)c2)C1=O (stereo not drawn)
11,205 to 207 °C,CCC1=Cc2cc(OCC(=O)O)c(Cl)c(Cl)c2C1=O
12,163 to 165 °C,CC1(c2ccccc2)Cc2cc(OCC#N)c(Cl)c(Cl)c2C1=O (stereo not drawn)
13,145 to 147 °C,c1ccc(-c2ccc3[nH]c4ccc(-c5ccccc5)cc4c3c2)cc1
14,57 to 58 °C,Sc1c(Cl)ccc(Cl)c1S
15,169 to 170 °C,CC(=O)SCC(Cc1ccccc1)C(=O)Nc1cccc(C(=O)O)c1 (stereo not drawn)
16,134 to 136 °C,O=C(O)c1cccc(NC(=O)C(CS)CCCc2ccccc2)c1 (stereo not drawn)
17,166 °C,COc1cc(N)c(Cl)cc1C(=O)N[C@H]1CCN(CCCC(=O)c2cccnc2)C[C@H]1OC (relative stereo)
18,122 to 124 °C,NC(=O)CCC(=O)c1ccccc1
19,78 to 80 °C,NC1(C(=O)O)CC(O)C2C(C(=O)O)C21 (stereo not drawn)
20,132 °C,NC(=O)c1cccc(N2CCN(C(=O)c3c(-c4ccccc4)ccn3CC(=O)O)CC2)c1
21,124 to 126 °C,O=C(O)C(=O)c1ccc(OCCOc2ccc(Oc3ccccc3)cc2)cc1
22,208 to 210 °C,CN1CCN(N(c2ccccc2)c2nc3c(-c4c(F)cccc4F)n[nH]c3s2)CC1
23,93 to 95 °C,COc1ccc(N2CCN(c3c(C)c(C)c4c(c3C)C(NCc3ccccc3)C(C)(C)O4)CC2)cc1 (stereo not drawn)
24,160 to 162 °C,OCC1CC(n2c(SCc3ccccc3)nc3cc(Cl)c(Cl)cc32)C(O)C1O (stereo not drawn)
25,121 to 123 °C,CNC(=O)N(O)C(C)C#CCCc1ccccc1 (stereo not drawn)

row,melting point,Structure (SMILES)
1,224 to 225 °C,Cc1nc2c3c(c(C(=O)NCC(C)O)cc2n1C)CCC1(Cc2ccccc2C1)N3 (stereo not drawn)
2,194 to 195 °C,C#CCN(C(CCn1c(=O)[nH]c2ccccc2c1=O)C(=O)O)S(=O)(=O)c1ccc(Oc2ccccc2)cc1 (stereo not drawn)
3,166 °C,CN(C)C(=O)Nc1ccc(Oc2cccc(C(F)(F)F)c2)c(Cl)c1
4,42 to 43 °C,COc1ccc(N2C3CCC(C(=O)C3)C2c2ccc(Cl)cc2)cc1OC (stereo not drawn)
5,79 °C,FC(F)(F)c1ccc2ncc(Br)cc2c1
6,122 to 123 °C,CC1(C(O)=Nc2cc(Cl)cc(Cl)c2)CC(F)C1(C)C(=O)O (stereo not drawn)
7,58 to 59 °C,COc1ccc(CS(=O)(=O)C(C)(Cc2ccccc2)C(=O)N(O)O)cc1 (stereo not drawn)
8,184 to 186 °C,CCn1cc(C(=O)O)c(=O)c2cc(F)c(N3CCN(C)C(COC(C)C)C3)cc21 (stereo not drawn)
9,87 to 89.5 °C,O=C(c1ccccc1)c1ccc(OCCBr)cc1O
10,164 to 165 °C,Nc1nc2c3ccccc3ccn2n1
11,122 to 123 °C,COc1cc2c(cc1OC)CN(CCCCOc1ccc(NC(=O)c3nccc4ccccc34)cc1)CC2
12,233 to 234 °C,O=c1cc2c(nn1-c1ccc(Cl)cc1)-c1ccccc1S(=O)CC2 (stereo not drawn)
13,65 °C,CCCC(=O)c1ccc(OC)c(C(=O)Cl)c1
14,172 to 174 °C,NC(=O)N(CCCOc1ccc(C(=O)O)cc1)c1ccc(Cl)cc1
15,99 to 100 °C,CCOC(=O)c1cc2cc(OCCNC[C@H](O)COc3ccccc3)ccc2s1
16,56 to 59 °C,CC(=O)OCC(C)(C)C(=O)O
17,155 to 157 °C,CNS(=O)(=O)CCCn1cnc2c(N)nc3ccccc3c21
18,179 to 180 °C,COc1cc(C(=O)N2Cc3ccc(C(=O)NCc4ccc(C)cc4)n3Cc3ccccc32)ccc1-c1ccccc1C
19,176 to 178 °C,COc1cccc(OC)c1C(=O)Nc1cc(C(C)(C)C)n[nH]1
20,87 to 90 °C,CCOCCNC(=O)c1ccc(-c2ccc(C(CC3CCOCC3)c3ccc(S(=O)(=O)C4CC4)cc3)[nH]2)nc1 (stereo not drawn)
21,80 °C,Cc1cn(C2OC(C)(CO)C(O)C2F)c(=O)[nH]c1=O (stereo not drawn)
22,177 °C,CC(=O)NC(C)Cn1cc(-c2ccccc2)c2ccccc2c1=O (stereo not drawn)

row,Structure (SMILES),melting point
1,COC(=O)CN(CC(F)(F)F)c1ccc(C#N)c(C(F)(F)F)c1,144 to 145 °C
